Source: PubChem BioAssay AID1963968 (Molecular Pharmacology Branch, DTP, NCI, 2024)

System: 945468-187-T-J3-PDC spheroids with HUVEC/MSC, viability
Assay: Anticancer human tumor 945468-187-T-J3-PDC patient-derived rectal carcinoma cell line growth inhibition [PI3K]
Details: for IC50: curve of first compound; for viability, T/C: stronger effect = lower value
How it was run: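 High-throughput combination screen: PI3K inhibitors crossed with targeted small molecules on complex spheroids of tumor cells, HUVEC and MSCs at 37 degrees C, 5% CO2. Top concentration was at or near clinical Cmax (otherwise 10 microM), with half-log decrements.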

[1] = second compound 0.0316 µM, first compound 0.000316 µM
[2] = second compound 0.0316 µM, first compound 0.001 µM
[3] = second compound 0.0316 µM, first compound 0.00316 µM
[4] = second compound 0.0316 µM, first compound 0.01 µM
[5] = second compound 0.0316 µM, first compound 0.0316 µM
[6] = second compound 0.0316 µM, first compound 0.1 µM
[7] = second compound 0.1 µM, first compound 0.000316 µM
[8] = second compound 0.1 µM, first compound 0.001 µM
[9] = second compound 0.1 µM, first compound 0.00316 µM
[10] = second compound 0.1 µM, first compound 0.01 µM
[11] = second compound 0.1 µM, first compound 0.0316 µM
[12] = second compound 0.1 µM, first compound 0.1 µM
[13] = second compound 0.316 µM, first compound 0.000316 µM
[14] = second compound 0.316 µM, first compound 0.001 µM
[15] = second compound 0.316 µM, first compound 0.00316 µM
[16] = second compound 0.316 µM, first compound 0.01 µM
[17] = second compound 0.316 µM, first compound 0.0316 µM
[18] = second compound 0.316 µM, first compound 0.1 µM
[19] = second compound 1 µM, first compound 0.000316 µM
[20] = second compound 1 µM, first compound 0.001 µM
[21] = second compound 1 µM, first compound 0.00316 µM
[22] = second compound 1 µM, first compound 0.01 µM
[23] = second compound 1 µM, first compound 0.0316 µM
[24] = second compound 1 µM, first compound 0.1 µM
[25] = second compound 3.16 µM, first compound 0.000316 µM
[26] = second compound 3.16 µM, first compound 0.001 µM
[27] = second compound 3.16 µM, first compound 0.00316 µM
[28] = second compound 3.16 µM, first compound 0.01 µM
[29] = second compound 3.16 µM, first compound 0.0316 µM
[30] = second compound 3.16 µM, first compound 0.1 µM
[31] = second compound 10 µM, first compound 0.000316 µM
[32] = second compound 10 µM, first compound 0.001 µM
[33] = second compound 10 µM, first compound 0.00316 µM
[34] = second compound 10 µM, first compound 0.01 µM
[35] = second compound 10 µM, first compound 0.0316 µM
[36] = second compound 10 µM, first compound 0.1 µM
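Note: spheroids exposed to agents for 7 days before viability read.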
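Throughout, for viability, T/C: 100% = DMSO vehicle control viability.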

## CC(=O)c1c(C)c2cnc(Nc3ccc(N4CCNCC4)cn3)nc2n(C2CCCC2)c1=O + Cc1nc(NC(=O)N2CCCC2C(N)=O)sc1-c1ccnc(C(C)(C)C(F)(F)F)c1
Second compound 0.0316 µM
  IC50: > 100 nM
Second compound 0.1 µM
  IC50: > 100 nM
Second compound 0.316 µM
  IC50: > 100 nM
Second compound 1 µM
  IC50: > 100 nM
Second compound 3.16 µM
  IC50: > 100 nM
Second compound 10 µM
  IC50: 12.4 nM
[1]
  viability, T/C: 98.8%
[2]
  viability, T/C: 100%
[3]
  viability, T/C: 90.7%
[4]
  viability, T/C: 107%
[5]
  viability, T/C: 97.5%
[6]
  viability, T/C: 104%
[7]
  viability, T/C: 91.5%
[8]
  viability, T/C: 107%
[9]
  viability, T/C: 85.5%
[10]
  viability, T/C: 91%
[11]
  viability, T/C: 100%
[12]
  viability, T/C: 102%
[13]
  viability, T/C: 103%
[14]
  viability, T/C: 101%
[15]
  viability, T/C: 103%
[16]
  viability, T/C: 97.9%
[17]
  viability, T/C: 99.8%
[18]
  viability, T/C: 94.3%
[19]
  viability, T/C: 111%
[20]
  viability, T/C: 103%
[21]
  viability, T/C: 100%
[22]
  viability, T/C: 97.6%
[23]
  viability, T/C: 101%
[24]
  viability, T/C: 102%
[25]
  viability, T/C: 106%
[26]
  viability, T/C: 93.2%
[27]
  viability, T/C: 90.5%
[28]
  viability, T/C: 90.7%
[29]
  viability, T/C: 90.7%
[30]
  viability, T/C: 76.2%
[31]
  viability, T/C: 57.6%
[32]
  viability, T/C: 56%
[33]
  viability, T/C: 55.1%
[34]
  viability, T/C: 49.3%
[35]
  viability, T/C: 46%
[36]
  viability, T/C: 31.3%

## CC(C)n1nc(-c2ccc3oc(N)nc3c2)c2c(N)ncnc21 + Cc1nc(NC(=O)N2CCCC2C(N)=O)sc1-c1ccnc(C(C)(C)C(F)(F)F)c1
Second compound 0.0316 µM
  IC50: > 100 nM
Second compound 0.1 µM
  IC50: > 100 nM
Second compound 0.316 µM
  IC50: > 100 nM
Second compound 1 µM
  IC50: 77 nM
Second compound 3.16 µM
  IC50: 30.2 nM
Second compound 10 µM
  IC50: 10.7 nM
[1]
  viability, T/C: 105%
[2]
  viability, T/C: 118%
[3]
  viability, T/C: 98.8%
[4]
  viability, T/C: 114%
[5]
  viability, T/C: 127%
[6]
  viability, T/C: 65.5%
[7]
  viability, T/C: 109%
[8]
  viability, T/C: 109%
[9]
  viability, T/C: 95.4%
[10]
  viability, T/C: 115%
[11]
  viability, T/C: 118%
[12]
  viability, T/C: 54.5%
[13]
  viability, T/C: 113%
[14]
  viability, T/C: 104%
[15]
  viability, T/C: 97.5%
[16]
  viability, T/C: 121%
[17]
  viability, T/C: 111%
[18]
  viability, T/C: 53.3%
[19]
  viability, T/C: 116%
[20]
  viability, T/C: 114%
[21]
  viability, T/C: 101%
[22]
  viability, T/C: 109%
[23]
  viability, T/C: 84%
[24]
  viability, T/C: 39.6%
[25]
  viability, T/C: 108%
[26]
  viability, T/C: 104%
[27]
  viability, T/C: 102%
[28]
  viability, T/C: 77.2%
[29]
  viability, T/C: 49.9%
[30]
  viability, T/C: 29.7%
[31]
  viability, T/C: 68%
[32]
  viability, T/C: 53.3%
[33]
  viability, T/C: 64.3%
[34]
  viability, T/C: 50.2%
[35]
  viability, T/C: 31.8%
[36]
  viability, T/C: 22.7%
